Source: PubChem BioAssay AID2060625 (Molecular Pharmacology Branch, DTP, NCI, 2025)
pIC50: −log10 of the molar value.

Tested on: 186277-243-T-J2-PDC spheroids with HUVEC/MSC, viability
Test: Anticancer human tumor 186277-243-T-J2-PDC patient-derived colon adenocarcinoma cell line growth inhibition [CLK]
Conditions: for pIC50: curve of first compound; for viability, T/C: stronger effect = lower value; active = viability on the fitted dose curve at most 10% of control; inactive = the rest
From the text: A high-throughput screen of multi-cell type tumor spheroids was designed to identify active combinations of […] and targeted small molecules. Complex spheroids include a stromal component modeled by human endothelial cells (HUVEC) and fibroblasts modeled by human mesenchymal stem cells (MSCs). The concentration ranges selected for each drug and investigational agent were based upon clinically achievable concentrations if the clinical Cmax of the agent was known.
Compounds. The drugs and investigational agents: cirtuvivint (SM08502; NSC835563), CC-671 (NSC850746), vemurafenib (NSC761431), tapotoclax (NSC804041), sotorasib (NSC818433), adagrasib (NSC831453), MRTX-1133 (NSC836407), BAY2416964 (NSC825713), copanlisib (NSC816437), inavolisib (NSC800729), abemaciclib (NSC768073), osimertinib (NSC779217), entinostat (NSC756642), eltanexor (KPT-8602, NSC794443), venetoclax (NSC766270), ceralasertib (NSC777638), bortezomib (NSC756655), olaparib (NSC753686), talazoparib (NSC767125), alisertib (NSC759677), peposertib (NSC802822), gemcitabine (NSC613327), 5-fluorouracil (NSC19893), SN-38 (NSC673596), oxaliplatin (NSC266046), paclitaxel (NSC125973), and doxorubicin (NSC123127), were obtained from the National Cancer Institute (NCI) Developmental Therapeutics Program Chemical Repository. The FDA-approved anticancer drug set is available from the Developmental Therapeutics Program at https://dtp.cancer.gov/organization/dscb/obtaining/available plates.htm. […] The stock solutions were prepared in dimethyl sulfoxide (DMSO, Sigma-Aldrich, St. Louis, MO, cat. D2650), except for the platinum complexes which were prepared in saline (Quality Biological, Gaithersburg, MD, cat. 114-055-101), at 800-fold the tested concentration and stored at -70 degrees C prior to their use. All drugs and investigational agents were tested over a range starting from a high concentration at or near the clinical Cmax and decreasing in half-log increments. If the clinical Cmax for an agent had not been determined, the highest concentration tested was 10 microM.
Cell Culture. All cells were maintained in an incubator at 37 degrees C and 5% CO2 with 95% humidity. The PDC lines were cultured according to standard operating procedures established by the NCI PDMR. Briefly, all PDCs were thawed and cultured in Matrigel-coated flasks prepared with a working solution of 1X Ham's F-12 nutrient mix, without supplementation (Invitrogen, Waltham, MA, cat. 11765054), 100 U/mL penicillin-streptomycin (Invitrogen, cat. 15140122), and 2.5% Matrigel (Corning Inc., Corning, NY, cat. 354248) for the first three passages. The 947758-054-R-J2-PDC line was cultured in 6B/Colon 1A media, which includes advanced DMEM/F-12 (Thermo Fisher Scientific, cat. 12634028), 10 mM HEPES (Thermo Fisher Scientific, cat. 15630080), 1X GlutaMAX supplement (Thermo Fisher Scientific, cat. 35050061), 0.1 mg/mL primocin (InvivoGen, cat. ant-pm-2), 10% defined fetal bovine serum, heat inactivated (HyClone Laboratories Inc., cat. SH30070.03HI), 1.25 mM N-Acetyl-L-cysteine (Sigma-Aldrich, cat. A9165), 10 mM nicotinamide (Sigma-Aldrich, cat. N0636), 1X B-27 supplement (Thermo Fisher Scientific, cat. 17504044), 1X N-2 supplement (Thermo Fisher Scientific, cat. 17502048), and 10 microM Y-27632 dihydrochloride (Tocris Bioscience, cat. 1254). The 876862-298-R-J1-PDC was cultured in 6E media, which includes all 6B/Colon 1A media components plus 50% L-WRN conditioned media (ATCC, cat. CRL-3276), 50 ng/mL recombinant human EGF recombinant protein (hEGF; Thermo Fisher Scientific, cat. PHG0311), 10 ng/mL recombinant human fibroblast growth factor 10 (hGFG-10; PeproTech, cat. 100-26), 1 ng/mL recombinant human fibroblast growth factor 2 (hFGF-2; PeproTech, cat. 100-18B), and 1 µM prostaglandin E2 (PGE2; Tocris, cat. 2296). The 227483-062-R1-J1-PDC line was cultured in Panc media, containing all 6E components except hFGF-2, with the addition of 500 nM SB-431542 (Selleckchem, cat. S1067) and 10 nM gastrin (Tocris, cat. 3006). […]
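Note: compound exposure lasted seven days before readout.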
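Throughout, for viability, T/C: 100% = DMSO vehicle control wells.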

COC1C=CCC(C)C(C)S(=O)(=O)NC(=O)c2ccc3c(c2)N(CC2CCC21)CC1(CCCc2cc(Cl)ccc21)CO3 (configuration not stated) + CNC(=O)c1ccc(Nc2nc(OC3CCCC3)c3c(-c4ccc5nc(C)oc5c4)c[nH]c3n2)c(OC)c1
7.05: pIC50 (second compound 0.1 µM)
> 7.50: pIC50 (second compound 0.316 µM) | pIC50 (second compound 1 µM) | pIC50 (second compound 3.16 µM) | pIC50 (second compound 10 µM)
inactive: viability, T/C (second compound 0.0316 µM, first compound 0.0316 µM) 101% | viability, T/C (second compound 0.0316 µM, first compound 0.1 µM) 101% | viability, T/C (second compound 0.0316 µM, first compound 0.316 µM) 103% | viability, T/C (second compound 0.0316 µM, first compound 1 µM) 83% | viability, T/C (second compound 0.0316 µM, first compound 3.16 µM) 55.9% | viability, T/C (second compound 0.1 µM, first compound 0.0316 µM) 64% | viability, T/C (second compound 0.1 µM, first compound 0.1 µM) 50.2% | viability, T/C (second compound 0.1 µM, first compound 0.316 µM) 29.8% | viability, T/C (second compound 0.1 µM, first compound 1 µM) 19.8% | viability, T/C (second compound 0.316 µM, first compound 0.0316 µM) 39.9% | viability, T/C (second compound 0.316 µM, first compound 0.1 µM) 32% | viability, T/C (second compound 0.316 µM, first compound 0.316 µM) 19.9% | viability, T/C (second compound 0.316 µM, first compound 1 µM) 12.5% | viability, T/C (second compound 1 µM, first compound 0.0316 µM) 30.1% | viability, T/C (second compound 1 µM, first compound 0.1 µM) 23.2% | viability, T/C (second compound 1 µM, first compound 0.316 µM) 14.7% | viability, T/C (second compound 3.16 µM, first compound 0.0316 µM) 31.5% | viability, T/C (second compound 3.16 µM, first compound 0.1 µM) 27% | viability, T/C (second compound 3.16 µM, first compound 0.316 µM) 17.6% | viability, T/C (second compound 3.16 µM, first compound 1 µM) 10.1% | viability, T/C (second compound 10 µM, first compound 0.0316 µM) 36.1% | viability, T/C (second compound 10 µM, first compound 0.1 µM) 25.4% | viability, T/C (second compound 10 µM, first compound 0.316 µM) 20.5% | viability, T/C (second compound 10 µM, first compound 1 µM) 11.9%
active: viability, T/C (second compound 0.0316 µM, first compound 10 µM) 4.26% | viability, T/C (second compound 0.1 µM, first compound 3.16 µM) 9.64% | viability, T/C (second compound 0.1 µM, first compound 10 µM) 3.08% | viability, T/C (second compound 0.316 µM, first compound 3.16 µM) 6.42% | viability, T/C (second compound 0.316 µM, first compound 10 µM) 2.78% | viability, T/C (second compound 1 µM, first compound 1 µM) 10.7% | viability, T/C (second compound 1 µM, first compound 3.16 µM) 5.35% | viability, T/C (second compound 1 µM, first compound 10 µM) 4.55% | viability, T/C (second compound 3.16 µM, first compound 3.16 µM) 6.79% | viability, T/C (second compound 3.16 µM, first compound 10 µM) 2.91% | viability, T/C (second compound 10 µM, first compound 3.16 µM) 5.93% | viability, T/C (second compound 10 µM, first compound 10 µM) 2.8%
5.45: pIC50 (second compound 0.0316 µM)
